In patent publication US12122785B2, “Substituted pyridines, pyridazines, pyrimidines, and 1,2,4-triazines as TYK2 inhibitors” (Sudo Biosciences Limited, priority 2021, dated 2024):

Tests used:
[1] = system: TYK2 pseudokinase (JH2); IL-23-stimulated HEK-Blue IL-23 cells; assay: HEK-Blue IL-23 reporter assay (STAT3-inducible SEAP) for profiling TYK2 pseudokinase (JH2) inhibition; type: cell-based; settings: 10 ng/mL human recombinant IL-23, SEAP readout, read-out: IL23 (TYK2 inhibitory activity, IC50)
Procedure: (§1) Example B-1: HEK-Blue™ IL-23 and IFNα/β Reporter Assays for Profiling TYK2 Pseudokinase (JH2) Inhibition
(§2) HEK-Blue™ IL-23 and IFNα/β cells with a stably-integrated cytokine receptor and STAT3 or STAT1 express STAT-inducible secreted embryonic alkaline phosphatase (SEAP) reporter gene upon cytokine stimulation. These cells are plated in DMEM (Gibco) containing 10% heat-inactivated FBS (Gibco) and 100 U/mL PenStrep (Gibco) at 37° C. under 5% CO2 conditions for 20-22 hours. The cells are then pretreated with serially diluted test compounds for 60 min prior to stimulation with either 10 ng/mL human recombinant IL-23 (Miltenyl Biotech) or 1 ng/mL human recombinant IFNα (InvivoGen) for 22-24 hours for IL-23 or 16-18 h for IFNα. SEAP induction is measured using the QUANTI Blue™ Solution (InvivoGen) according to the manufacturer's instructions.

[2] = system: TYK2 pseudokinase (JH2); IFNα-stimulated HEK-Blue IFNα/β cells; assay: HEK-Blue IFNα/β reporter assay (STAT1-inducible SEAP) for profiling TYK2 pseudokinase (JH2) inhibition; type: cell-based; settings: 1 ng/mL human recombinant IFNα, SEAP readout, read-out: IFNα (TYK2 inhibitory activity, IC50)
Procedure: as §1, §2

TYK2 kinase domain (JH1) = molecular target: T1, TYK2 kinase domain (JH1) (Homo sapiens, UniProt P29597); assay: HTRF-based selectivity assay, TYK2 catalytic domain; type: biochemical; settings: 20 μM ATP
T1 construct: recombinant purified His or GST-tagged catalytic domain for each enzyme; made in house
T1 sequence (P29597 897-1176 limits assumed): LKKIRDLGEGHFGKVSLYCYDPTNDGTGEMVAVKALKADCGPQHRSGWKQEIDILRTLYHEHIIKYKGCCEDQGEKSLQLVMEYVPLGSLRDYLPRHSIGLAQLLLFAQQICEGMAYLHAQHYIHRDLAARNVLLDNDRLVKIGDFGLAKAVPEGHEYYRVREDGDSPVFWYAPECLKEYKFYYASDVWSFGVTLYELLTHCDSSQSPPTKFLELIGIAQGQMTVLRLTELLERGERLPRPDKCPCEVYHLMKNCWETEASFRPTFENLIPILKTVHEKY
Procedure: (§3) Example B-2: HTRF-Based Selectivity Assay
(§4) The ability of compounds to inhibit the activity of JAK1, JAK2, JAK3 and TYK2 is measured using a recombinant purified His or GST-tagged catalytic domain for each enzyme (JAK1, JAK2 and TYK2 are generated in-house; JAK3 was purchased from Carna biosciences, Cat #08-046) in an HTRF format biochemical assay. The reactions employs a commercial peptide substrate from Cisbio (Cat #62TK0PEC). The basic assay protocol is as follows: first, 2.5 μL of diluted compounds (4×) in DMSO are dispensed into a 384-well Optiplate. Next, 2.5 μL of enzyme (final concentrations for enzymes are: TYK2—700 ng/mL, JAK1—80.6 ng/mL, JAK2—2.1 ng/mL and JAK3—171.8 ng/mL) is added and incubated at RT for 5-20 min. Finally, 5 μl of mixture of 2×ATP [Final concentration 20 μM for TYK2, 21.43 μM for JAK1, 14.7 μM for JAK2 and 2.12 μM for JAK3]+2× Substrate [Final concentration 217 nM for TYK2, 454.7 nM for JAK1, 200 nM for JAK2 and 257.4 nM for JAK3] is added to 384 well Optiplate. Composition of Kinase assay buffer used in the assay is as follows: HEPES 50 mM, EGTA 1 mM, MgCl2 10 mM, DTT 2 mM, Tween-20 0.01% and water. Then the plates are shaken and then incubated at 26.5° C. for 60 min.

JAK1 kinase domain (JH1) = molecular target: T2, JAK1 kinase domain (JH1) (Homo sapiens, UniProt P23458); assay: HTRF-based selectivity assay, JAK1 catalytic domain; type: biochemical; settings: 21.43 μM ATP, read-out: JAK-JHI (IC50)
T2 construct: recombinant purified His or GST-tagged catalytic domain for each enzyme; made in house
T2 sequence (P23458 875-1153 limits assumed): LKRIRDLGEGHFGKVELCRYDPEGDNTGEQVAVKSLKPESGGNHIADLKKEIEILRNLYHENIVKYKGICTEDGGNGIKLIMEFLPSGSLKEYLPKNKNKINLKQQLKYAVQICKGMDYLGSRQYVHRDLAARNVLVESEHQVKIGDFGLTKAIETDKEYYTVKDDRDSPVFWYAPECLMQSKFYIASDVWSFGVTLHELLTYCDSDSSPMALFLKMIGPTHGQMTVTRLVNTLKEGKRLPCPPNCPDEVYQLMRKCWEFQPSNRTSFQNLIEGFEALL
Procedure: as §3, §4

JAK2 kinase domain (JH1) = molecular target: T3, JAK2 kinase domain (JH1) (Homo sapiens, UniProt O60674); assay: HTRF-based selectivity assay, JAK2 catalytic domain; type: biochemical; settings: 14.7 μM ATP
T3 construct: recombinant purified His or GST-tagged catalytic domain for each enzyme; made in house
T3 sequence (O60674 849-1124 limits assumed): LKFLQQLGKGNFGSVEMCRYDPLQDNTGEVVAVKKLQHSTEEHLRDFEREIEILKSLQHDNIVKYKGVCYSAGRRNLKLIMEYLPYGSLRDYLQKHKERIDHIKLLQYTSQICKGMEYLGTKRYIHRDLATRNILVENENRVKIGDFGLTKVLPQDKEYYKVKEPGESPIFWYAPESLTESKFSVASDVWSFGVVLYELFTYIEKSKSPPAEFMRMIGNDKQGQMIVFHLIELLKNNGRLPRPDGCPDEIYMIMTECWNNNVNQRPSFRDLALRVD
Procedure: as §3, §4

JAK3 kinase domain (JH1) = molecular target: T4, JAK3 kinase domain (JH1) (Homo sapiens, UniProt P52333); assay: HTRF-based selectivity assay, JAK3 catalytic domain; type: biochemical; settings: 2.12 μM ATP
T4 construct: recombinant purified His or GST-tagged catalytic domain for each enzyme; purchased Carna biosciences 08-046
T4 sequence (P52333 822-1111 limits assumed): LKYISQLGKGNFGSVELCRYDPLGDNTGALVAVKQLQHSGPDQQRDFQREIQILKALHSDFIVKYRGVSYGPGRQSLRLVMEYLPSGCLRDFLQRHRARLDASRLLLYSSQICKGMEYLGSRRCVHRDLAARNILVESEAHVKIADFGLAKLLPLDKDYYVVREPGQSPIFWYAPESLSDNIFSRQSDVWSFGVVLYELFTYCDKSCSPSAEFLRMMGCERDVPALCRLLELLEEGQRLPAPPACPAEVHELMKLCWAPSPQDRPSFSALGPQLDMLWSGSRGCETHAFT
Procedure: as §3, §4

[3] = system: IL-2-stimulated HEK-Blue IL-2 reporter cells; assay: HEK-Blue IL-2 reporter assay (STAT5-inducible SEAP) for determining selectivity; type: cell-based; settings: 4 ng/mL human recombinant IL-2, 24 hours
Procedure: (§5) Example B-3: HEK-Blue™ IL-2 and IFNγ Reporter Assays for Determining Selectivity
(§6) HEK-Blue™ IL-2 and IFNγ reporter cells with a stably-integrated cytokine receptor and STAT5 or STAT1 express STAT-inducible secreted embryonic alkaline phosphatase (SEAP) reporter gene upon cytokine stimulation. These cells were plated in DMEM (Gibco) containing 10% heat-inactivated FBS (Gibco) and 100 U/mL PenStrep (Gibco) at 37° C. under 5% CO2 conditions for 20-22 hours. The cells were then pretreated with serially diluted test compounds for 60 min prior to stimulation with either 4 ng/mL human recombinant IL-2 (Miltenyl Biotech) or 50 ng/mL human recombinant IFNγ (InvivoGen) for 24 hours. SEAP induction was measured using the QUANTI-Blue™ Solution (InvivoGen) according to the manufacturer's instructions.

[4] = system: IFNγ-stimulated HEK-Blue IFNγ reporter cells; assay: HEK-Blue IFNγ reporter assay (STAT1-inducible SEAP) for determining selectivity; type: cell-based; settings: 50 ng/mL human recombinant IFNγ, 24 hours, read-out: IFN-γ SEAP selectivity assay IC50
Procedure: as §5, §6

| Structure (SMILES) | IC50 [1] [nM] | IC50 [2] [nM] | IC50 (TYK2 kinase domain (JH1)) [nM] | IC50 (JAK1 kinase domain (JH1)) [nM] | IC50 (JAK2 kinase domain (JH1)) [nM] | IC50 (JAK3 kinase domain (JH1)) [nM] | IC50 [3] [nM] | IC50 [4] [nM] |
| --- | --- | --- | --- | --- | --- | --- | --- | --- |
| [2H]C([2H])([2H])NC(=O)c1cnc(NC(=O)C2CC2)cc1Nc1cccc2c1N(C)[C@@H](C)c1cn(C)nc1-2 (single isomer, unassigned) [Compound 30] | < 30 | < 30 | > 1000 | > 1000 | > 1000 | > 1000 |  |  |
| [2H]C([2H])([2H])NC(=O)c1cnc(NC(=O)[C@H]2C[C@H]2F)cc1Nc1cccc2c1N(C)Cc1cn(C)nc1-2 (single isomer, unassigned) [Compound 32] | < 30 | < 30 | > 1000 | > 1000 | > 1000 | > 1000 | > 1000 |  |
| [2H]C([2H])([2H])NC(=O)c1nnc(NC(=O)C2CC2)cc1Nc1nccc2c1N(C)[C@H](C)c1cn(C)nc1-2 (single isomer, unassigned) [Compound 70] | < 30 | < 30 | > 1000 | > 1000 | 30 to 300 | 300 to 1000 | > 1000 |  |
| CNC(=O)c1nnc(Nc2ccc(F)cn2)cc1Nc1cccc2c1OCc1cn(C)nc1-2 [Compound 1, 6-((5-fluoropyridin-2-yl)amino)-N-methyl-4-((2-methyl-2,4-dihydrochromeno[4,3-c]pyrazol-6-yl)amino)pyridazine-3-carboxamide] | 30 to 300 | 30 to 300 | 300 to 1000 | > 1000 | > 1000 | > 1000 | 300 to 1000 | 300 to 1000 |
| [2H]C([2H])([2H])NC(=O)c1nnc(NC(=O)C2CC2)cc1Nc1cccc2c1N(C([2H])([2H])[2H])Cc1cn(C)nc1-2 [Compound 28, 6-(cyclopropanecarboxamido)-N-(methyl-d3)-4-((2-methyl-5-(methyl-d3)-4,5-dihydro-2H-pyrazolo[4,3-c]quinolin-6-yl)amino)pyridazine-3-carboxamide] | < 30 | < 30 |  | > 1000 | > 1000 | > 1000 | 300 to 1000 | 30 to 300 |
| [2H]C([2H])([2H])NC(=O)c1cnc(NC(=O)C2CC2)cc1Nc1cccc2c1N(C)C([2H])([2H])c1cn(C)nc1-2 [Compound 35, 6-(cyclopropanecarboxamido)-4-((2,5-dimethyl-4,5-dihydro-2H-pyrazolo[4,3-c]quinolin-6-yl-4,4-d2)amino)-N-(methyl-d3)nicotinamide] | < 30 | < 30 | > 1000 | > 1000 | > 1000 | > 1000 | > 1000 |  |
| [2H]C([2H])([2H])NC(=O)c1nnc(NC(=O)C2CC2)cc1Nc1nccc2c1N(C)Cc1cc(C)nn1-2 [Compound 68, 6-(cyclopropanecarboxamido)-4-((2,5-dimethyl-4,5-dihydropyrazolo[1,5-a]pyrido[3,4-e]pyrazin-6-yl)amino)-N-(methyl-d3)pyridazine-3-carboxamide] | < 30 | < 30 | > 1000 | > 1000 | > 1000 | > 1000 | > 1000 |  |
| Cn1cc2c(n1)-c1cccc(Nc3cc(NC(=O)C4CC4)nc4[nH]n(C)c(=O)c34)c1OC2 [Compound 88, N-(2-methyl-4-((2-methyl-2,4-dihydrochromeno[4,3-c]pyrazol-6-yl)amino)-3-oxo-2,3-dihydro-1H-pyrazolo[3,4-b]pyridin-6-yl)cyclopropanecarboxamide] | 300 to 1000 | > 1000 | > 1000 |  | > 1000 | > 1000 | > 1000 | > 1000 |
| CN1Cc2cn(C)nc2-c2cccc(Nc3cc(NC(=O)C4CC4)nc4[nH]n(C)c(=O)c34)c21 [Compound 89, N-(4-((2,5-dimethyl-4,5-dihydro-2H-pyrazolo[4,3-c]quinolin-6-yl)amino)-2-methyl-3-oxo-2,3-dihydro-1H-pyrazolo[3,4-b]pyridin-6-yl)cyclopropanecarboxamide] | < 30 | 30 to 300 | > 1000 |  | > 1000 | > 1000 | > 1000 | > 1000 |
